{"source": "patent US11425909B2", "about": "“Use of tetrazolinones for combating resistant phytopathogenic fungi on fruits” (priority 2016, dated 2022)", "tested_on": "Uncinula necator (UNCINE), Qol-sensitive isolate", "test": "Activity against grape powdery mildew, protective glasshouse test, Qol-sensitive isolate", "format": "in vivo", "conditions": "% infected leaf area on grape plants, inoculated 2 days after treatment, assessed 19 days after inoculation", "protocol": "Activity against grape powdery mildew caused by Uncinula necator (UNCINE)\nThe active compounds were formulated separately. Both compounds were applied on plants at the same concentrations of 100, 25 and 5 ppm. The spray broths were prepared as aqueous solutions based on a 6% EC of compound I according to the present invention and a 5% Aceton/water solution of compound I-213 from prior art (WO2013/092224).\nThe spray solutions were applied until runoff using an experimental glasshouse spray machine at a water volume equivalent to 1.000 L/ha. Treated plants were placed (together with untreated plants as a reference for infection success) in a glasshouse chamber at approx. 18° C. and 50% rH for two days. Two days after treatment, the plants were split into two groups. They were artificially inoculated using an aqueous conidia suspension of 0.1 to 0.5 E05 conidia/ml. One part was inoculated using a Qol-sensitive isolate, the other part using a Qol-resistant isolate carrying the target mutation G143A. After the artificial inoculation, the plants were placed in a glasshouse chamber at 21° C. and 55% rH for 19 days. The assessment of the infection was done 19 days after the inoculation and reported as % infected leaf area on two leaves which were fully covered by the spray application."}
{"compound": "Cc1cccc(-n2nnn(C)c2=O)c1COc1ccn(-c2ccc(Cl)cc2)n1", "note": "[compound I, 1-[2-[[1-(4-chlorophenyl)pyrazol-3-yl]oxymethyl]-3-methyl-phenyl]-4-methyl-tetrazol-5-one]", "values": [{"measurement": "Infection (%) Sens. Uncinula necator", "setting": "5 ppm spray", "value": 0.3, "unit": "%"}, {"measurement": "Infection (%) Sens. Uncinula necator", "setting": "25 ppm spray", "value": 0.4, "unit": "%"}, {"measurement": "Infection (%) Sens. Uncinula necator", "setting": "100 ppm spray", "value": 0.0, "unit": "%"}]}
